In patent publication US20090054403A1, “Treatment of Post-Traumatic Stress Disorder” (priority 2007, published 2009):

Tested on: tissue noradrenaline and dopamine content
Assay: Tissue catecholamines in SHR after three oral doses 12 h apart
Assay type: in vivo, spontaneously hypertensive rats (SHR)
Method: The activity of nepicastat at twelve selected enzymes and receptors was determined using established assays. Details of individual receptor radioligand binding assays can be found in Wong et al (1993). Binding data were analyzed by iterative curve-fitting to a four parameter logistic equation. Ki values were calculated from IC50 values using the Cheng-Prusoff equation. Enzyme inhibitory activity was expressed as IC50 (concentration required to produce 50% inhibition of enzyme activity). Male SHRs (15-16 weeks old, Charles River, Wilmington, Mass., USA) were used in the study. On the day of the study, animals were weighed and randomly assigned to be dosed with either vehicle (control) or the appropriate dose of nepicastat (3, 10, 30 or 100 mg.kg^−1, po) or (R)-5-Aminomethyl-1-(5,7-difluoro-1,2,3,4-tetrahydronaphth-2-yl)-2,3-dihydro-2-thioxo-1H-imidazole hydrochloride (30 mg.kg^−1, po) three consecutive times, twelve hours apart. At six hours after the third dose, the rats were anaesthetized with halothane, decapitated and tissues (cerebral cortex, mesenteric artery and left ventricle) were rapidly harvested, weighed, placed in iced perchloric acid (0.4 M), frozen in liquid nitrogen and stored at −70° C. until subsequent analysis. To quantify noradrenaline and dopamine concentrations, tissues were homogenized by brief sonication and centrifuged at 13,000 rpm for 30 minutes at 4° C. The supernatant, spiked with 3,4-dihydroxybenzylamine (internal standard), was assayed for noradrenaline and dopamine by HPLC using electrochemical detection.
In vivo biochemical studies in spontaneously hypertensive rats (SHR) and normal dogs. Mate SHR (15-16 week old, Charles River, Wilmington, Mass.) were used in the study. On the day of the study, the animals were weighed and randomly assigned to receive either placebo (vehicle) or the appropriate dose of 2a, 2b or 1. Each rat was dosed orally three times, 12 h apart, beginning in the morning. At 6 h after the third dose, the rats were anesthetized with halothane, decapitated, and the tissues (cerebral cortex, mesenteric artery and left ventricle) were rapidly harvested, weighed, placed in iced 0.4 M perchloric acid, frozen in liquid nitrogen and stored at −70° C. until analysis. Tissue NE and DA concentrations were assayed by HPLC using electrochemical detection.
Fifteen to sixteen week old male spontaneously hypertensive rats (SHR) (Charles River Labs) were allowed food and water ad libitum. Animals were weighed and randomly assigned to one of the following treatment groups: 1) distilled water vehicle (dH2O), or nepicastat at 3, 10, 30, and 100 mg/kg, 2) (R)-5-Aminomethyl-1-(5,7-difluoro-1,2,3,4-tetrahydronaphth-2-yl)-2,3-dihydro-2-thioxo-1H-imidazole hydrochloride at 30 mg/kg in distilled water, or 3) PEG 400:dH2O vehicle or RS-2643 1-000 at 30 mg/kg. Each rat was dosed orally (p.o., using a gavage needle) three times 12 hours apart, beginning in the morning. At six hours after the third dose rats were anesthetized with halothane, decapitated, and the cortex, mesenteric artery, and left ventricle were rapidly harvested, weighed, placed in iced 0.4 M perchioric acid, frozen in liquid nitrogen, and stored at −70° C. Tissue dopamine and norepinephrine concentrations were assayed by high performance liquid chromatography and electrochemical detection.
Four series of statistical analyses were performed. The first series compared the rats treated with various doses of nepicastat, and (R)-5-Aminomethyl-1-(5,7-difluoro-1,2,3,4-tetrahydronaphth-2-yl)-2,3-dihydro-2-thioxo-1H-imidazole hydrochloride at 30 mg/kg to the vehicle control animals. A nonparametric one-way analysis of variance (ANOVA) with factor Dose and blocking factor Day was performed for each tissue and strain separately. Overall results are reported. Pairwise analysis between treated and controls at each dose were carried out using Dunnett's test to control the experiment-wise error rate. […]

[1] = 100 mg/kg po x3, 6 h after third dose
[2] = conclusion over rat dose-response studies
[3] = doses of 3, 10, 30 and 100 mg/kg

**Q.** What does the source list for Cl.NCc1c[nH]c(=S)n1[C@@H]1CCc2c(F)cc(F)cc2C1 [R-enantiomer, (R)-5-Aminomethyl-1-(5,7-difluoro-1,2,3,4-tetrahydronaphth-2-yl)-2,3-dihydro-2-thioxo-1H-imidazole hydrochloride]?
**A.** dopamine vs vehicle, cerebral cortex (30 mg/kg po x3): significant increase; dopamine vs vehicle, left ventricle (30 mg/kg po x3): significant increase; dopamine vs vehicle, mesenteric artery (30 mg/kg po x3): significant increase; dopamine/norepinephrine ratio vs vehicle, cerebral cortex (30 mg/kg po x3): no effect; dopamine/norepinephrine ratio vs vehicle, left ventricle (30 mg/kg po x3): significant increase; dopamine/norepinephrine ratio vs vehicle, mesenteric artery (30 mg/kg po x3): significant increase; increase in DA/NE ratio, cerebral cortex (30 mg/kg po x3): 1.1 fold; increase in DA/NE ratio, left ventricle (30 mg/kg po x3): 3.5 fold; increase in DA/NE ratio, mesenteric artery (30 mg/kg po x3): 2.6 fold; norepinephrine vs vehicle, cerebral cortex (30 mg/kg po x3): significant increase; norepinephrine vs vehicle, left ventricle (30 mg/kg po x3): did not significantly lower; norepinephrine vs vehicle, mesenteric artery (30 mg/kg po x3): did not significantly lower

**Q.** For Fc1cc(F)cc(Cn2cc[nH]c2=S)c1 [SKF 102698, reference compound], which “dopamine vs vehicle, cerebral cortex” value (30 mg/kg po x3) is on record?
**A.** significantly greater (p<0.01) than vehicle

**Q.** What about the “dopamine vs vehicle, left ventricle” value (30 mg/kg po x3) of the same molecule?
**A.** significantly greater (p<0.01) than vehicle

**Q.** What about the “dopamine vs vehicle, mesenteric artery” value (30 mg/kg po x3) of the same molecule?
**A.** significantly greater than vehicle

**Q.** And the “dopamine/norepinephrine ratio vs vehicle, cerebral cortex” value (30 mg/kg po x3)?
**A.** significantly (p<0.01) greater than vehicle

**Q.** What about the “dopamine/norepinephrine ratio vs vehicle, left ventricle” value (30 mg/kg po x3) of the same molecule?
**A.** significantly (p<0.05) greater than vehicle

**Q.** What about the “dopamine/norepinephrine ratio vs vehicle, mesenteric artery” value (30 mg/kg po x3) of the same molecule?
**A.** significantly greater than vehicle

**Q.** And the “increase in DA/NE ratio, cerebral cortex” value (30 mg/kg po x3)?
**A.** 2.7 fold

**Q.** What about the “increase in DA/NE ratio, left ventricle” value (30 mg/kg po x3) of the same molecule?
**A.** 3.5 fold

**Q.** What about the “increase in DA/NE ratio, mesenteric artery” value (30 mg/kg po x3) of the same molecule?
**A.** 5.5 fold

**Q.** What about the “norepinephrine vs vehicle, cerebral cortex” value (30 mg/kg po x3) of the same molecule?
**A.** significantly lower than vehicle

**Q.** And the “norepinephrine vs vehicle, left ventricle” value (30 mg/kg po x3)?
**A.** not different from vehicle

**Q.** And the “norepinephrine vs vehicle, mesenteric artery” value (30 mg/kg po x3)?
**A.** significantly lower than vehicle

**Q.** Cl.NCc1c[nH]c(=S)n1[C@H]1CCc2c(F)cc(F)cc2C1 [nepicastat, (S)-5-Aminomethyl-1-(5,7-difluoro-1,2,3,4-tetrahydronaphth-2-yl)-2,3-dihydro-2-thioxo-1H-imidazole hydrochloride] was tested. Which “increase in DA/NE ratio, cerebral cortex” value (30 mg/kg po x3) did it give?
**A.** 1.5 fold

**Q.** And the “increase in DA/NE ratio, left ventricle” value (30 mg/kg po x3)?
**A.** 7.5 fold

**Q.** What about the “increase in DA/NE ratio, mesenteric artery” value (30 mg/kg po x3) of the same molecule?
**A.** 8.3 fold

**Q.** What about the “maximal increase in DA/NE ratio, artery (mesenteric)” value (100 mg/kg po x3) of the same molecule?
**A.** 14 fold

**Q.** And the “maximal increase in DA/NE ratio, cerebral cortex” value (100 mg/kg po x3)?
**A.** 3.2 fold

**Q.** What about the “maximal increase in DA/NE ratio, left ventricle” value (100 mg/kg po x3) of the same molecule?
**A.** 11 fold

**Q.** And the “decrease in noradrenaline, cerebral cortex” value [1]?
**A.** 42%

**Q.** And the “decrease in noradrenaline, left ventricle” value [1]?
**A.** 35%

**Q.** What about the “decrease in noradrenaline, mesenteric artery” value [1] of the same molecule?
**A.** 47%

**Q.** And the “increase in dopamine, cerebral cortex” value [1]?
**A.** 86%

**Q.** And the “increase in dopamine, left ventricle” value [1]?
**A.** 800%

**Q.** And the “increase in dopamine, mesenteric artery” value [1]?
**A.** 820%

**Q.** And the “norepinephrine concentration vs vehicle, mesenteric artery” value (10, 30 and 100 mg/kg)?
**A.** not significantly less (p>0.05) than vehicle

**Q.** And the “dopamine/norepinephrine ratio vs vehicle, mesenteric artery” value (all doses (3-100 mg/kg))?
**A.** significantly (p<0.05) greater than vehicle

**Q.** What about the “in vivo potency compared with the R enantiomer” value (all three tissues at 30 mg/kg) of the same molecule?
**A.** more potent than the R enantiomer

**Q.** And the “dose inhibiting DBH in the cerebral cortex of rats” value [2]?
**A.** 60 to 100 mg/kg/day

**Q.** And the “dose inhibiting DBH in the left ventricle and mesenteric artery of rats” value [2]?
**A.** 1 to 6 mg/kg/day

**Q.** What about the “dopamine concentration vs vehicle, left ventricle” value [3] of the same molecule?
**A.** significantly (p<0.05) greater than vehicle

**Q.** And the “dopamine concentration vs vehicle, mesenteric artery” value [3]?
**A.** significantly (p<0.05) greater than vehicle

**Q.** What about the “dopamine/norepinephrine ratio vs vehicle, left ventricle” value [3] of the same molecule?
**A.** significantly (p<0.05) greater than vehicle

**Q.** What about the “norepinephrine concentration vs vehicle, left ventricle” value (doses of 10, 30 and 100 mg/kg) of the same molecule?
**A.** significantly (p<0.05) lower than vehicle

**Q.** What about the “dopamine concentration vs vehicle, cerebral cortex” value (doses of 30 and 100 mg/kg) of the same molecule?
**A.** significantly (p<0.05) greater

**Q.** And the “dopamine/norepinephrine ratio vs vehicle, cerebral cortex” value (doses of 30 and 100 mg/kg)?
**A.** significantly (p<0.05) greater

**Q.** What about the “norepinephrine concentration vs vehicle, cerebral cortex” value (doses of 30 and 100 mg/kg) of the same molecule?
**A.** significantly (p<0.05) lower

**Q.** What about the “doses at which catecholamine changes attained statistical significance (p<0.05)” value (mesenteric artery and left ventricle) of the same molecule?
**A.** > 3 mg/kg

**Q.** What about the “in vivo effectiveness compared with SKF 102698” value (three doses at 30 mg/kg over 24 hours) of the same molecule?
**A.** more effective than SKF 102698 in the mesenteric artery and left ventricle, but less effective in the cerebral cortex
